What was measured:
[1] = target: T1, rANP-1 (AlaNyl aminopeptidase 1) (Caenorhabditis elegans, UniProt Q22317); assay: L-Leu-pNA hydrolysis, absorbance at […] nm; assay type: biochemical; conditions: inhibitor concentration not given; pre-incubation with inhibitor; substrate L-Leu-pNA; refolded fragment
T1 construct: gene anp-1
T1 sequence (Q22317 93-559): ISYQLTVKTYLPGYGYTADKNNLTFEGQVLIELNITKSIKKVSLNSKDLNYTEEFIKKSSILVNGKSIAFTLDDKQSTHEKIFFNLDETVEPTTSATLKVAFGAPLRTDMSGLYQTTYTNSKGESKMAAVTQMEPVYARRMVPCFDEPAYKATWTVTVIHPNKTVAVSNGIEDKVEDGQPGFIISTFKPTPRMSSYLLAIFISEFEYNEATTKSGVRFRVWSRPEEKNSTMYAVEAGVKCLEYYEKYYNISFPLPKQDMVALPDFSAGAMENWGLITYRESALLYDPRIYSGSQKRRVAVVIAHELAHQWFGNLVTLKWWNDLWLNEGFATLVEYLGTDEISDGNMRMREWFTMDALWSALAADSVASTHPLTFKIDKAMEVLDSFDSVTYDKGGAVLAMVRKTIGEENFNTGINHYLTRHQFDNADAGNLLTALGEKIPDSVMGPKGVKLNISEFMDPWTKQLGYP

[2] = target: T1, rANP-1 (AlaNyl aminopeptidase 1); assay: p-nitroanilide release, absorbance at […] nm; assay type: biochemical; conditions: refolded fragment

| Compound | % reduction of activity [1] | p-nitroanilide release, absorbance at 405 nm [2] |
| --- | --- | --- |
| CC(C)C[C@H](NC(=O)[C@@H](O)[C@H](N)Cc1ccccc1)C(=O)O [bestatin] | ~ 46% |  |
| CC(C)C[C@H](N)C(=O)Nc1ccc([N+](=O)[O-])cc1 [L-leucine-p-nitroanilide] |  | Aminopeptidase activity of rANP-1 protein was measured using L-Leu-pNA as substrate |
| CC(C)C[C@@H](N)[C@H](O)C(=O)N[C@H](C(=O)N[C@H](C(=O)N[C@@H](CC(=O)O)C(=O)O)C(C)C)C(C)C [amastatin] | ~ 55% |  |
